# Source: PubChem BioAssay (NCI)
#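 Following 48 hours of exposure in 96-well plates, responses at five concentrations were used to interpolate endpoints linearly. GI50 marks 50% less growth. Definition used: TGI = concentration required for complete inhibition of growth.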
# What was measured:
# Assay in all cases: growth of human tumour cells (NCI), 48 h
# SNB-75 CNS = test system: SNB-75 CNS
# OVCAR-8 ovarian = test system: OVCAR-8 ovarian
# SF-268 CNS = test system: SF-268 CNS
# RPMI-8226 leukemia = test system: RPMI-8226 leukemia
# NCI-H226 lung = test system: NCI-H226 lung
# COLO 205 colon = test system: COLO 205 colon
# NCI/ADR-RES ovarian = test system: NCI/ADR-RES ovarian
# ACHN renal = test system: ACHN renal
# MDA-MB-231 breast = test system: MDA-MB-231 breast
# HOP-92 NSCLC = test system: HOP-92 NSCLC
SMILES,TGI (SNB-75 CNS) [µM],TGI (OVCAR-8 ovarian) [µM],TGI (SF-268 CNS) [µM],TGI (RPMI-8226 leukemia) [µM],TGI (NCI-H226 lung) [µM],TGI (COLO 205 colon) [µM],TGI (NCI/ADR-RES ovarian) [µM],TGI (ACHN renal) [µM],TGI (MDA-MB-231 breast) [µM],TGI (HOP-92 NSCLC) [µM],GI50 (SNB-75 CNS) [µM],GI50 (OVCAR-8 ovarian) [µM],GI50 (SF-268 CNS) [µM],GI50 (RPMI-8226 leukemia) [µM],GI50 (NCI-H226 lung) [µM],GI50 (COLO 205 colon) [µM],GI50 (NCI/ADR-RES ovarian) [µM],GI50 (ACHN renal) [µM],GI50 (MDA-MB-231 breast) [µM],GI50 (HOP-92 NSCLC) [µM]
O=C(/C=C/c1ccccc1)Oc1ccc(C(=O)/C=C/c2ccccc2)cc1,19.8,16,18.3,15.4,> 100,21,21.9,18.3,23,39,,,,,,,,,,
Cc1nn(-c2ccccc2)c2c1C(c1cc3ccccc3nc1Cl)NC(=O)N2 (stereo not given),50.2,47.4,> 100,61.4,60.1,41.1,> 100,35.8,59.3,32.1,,,,,,,,,,
N#CC(C#N)=C1SC(=Nc2ccccc2)C(=Nc2ccccc2)N1c1ccccc1,> 100,65.9,> 66.7,> 55.3,44.7,30.2,97.1,71.3,26.6,15.6,,,,,,,,,,
Cc1nc(C)c(N2CCN([N+](=O)[O-])CC2)c(=O)[nH]1,0.611,> 100,> 100,> 100,> 100,> 100,> 100,> 100,> 100,> 100,,,,,,,,,,
Cn1c(SCc2ccc(F)cc2)nnc1C12CC3CC(CC(C3)C1)C2,> 100,> 100,> 100,82.5,> 100,31.6,> 100,> 100,94.5,77.1,,,,,,,,,,
C[C@H](CCC(=O)O)[C@H]1CC[C@H]2[C@@H]3C(=O)C[C@@H]4C[C@H](O)CC[C@]4(C)[C@H]3C[C@H](O)[C@]12C,> 100,> 100,> 100,> 100,> 100,> 100,> 100,> 100,> 100,> 100,,,,,,,,,,
Cc1c2cc[n+](C)c(C)c2cc2c1[nH]c1ccccc12,6.98,> 93.4,5.6,73.5,10.8,5.54,> 93.4,> 100,> 36.3,50.8,,,,,,,,,,
CCOC(=O)c1cccc(N=Nc2nc[nH]c2/C=C/C(=O)OC)c1,58.7,> 100,> 100,> 100,> 100,> 100,> 100,> 100,> 100,> 100,,,,,,,,,,
COC(=O)C(Cc1ccc2c(c1)CCC2)Cc1ccc2c(c1)CCC2,> 100,> 100,> 100,> 100,> 100,> 100,> 100,> 100,> 100,> 100,,,,,,,,,,
C[n+]1c(/C=C/c2c(O)ccc3ccccc23)ccc2ccccc21,14.2,14.9,16.7,10.1,13.2,10.8,14.5,11.4,12.2,6.17,6.15,5.2,7.19,1.73,5.65,4.07,5.64,5.1,5.27,0.854
CSC1=N/C(=C\c2ccc(C)cc2)C(=O)N1CN1CCCCC1,> 100,> 100,> 100,> 100,> 100,> 100,> 100,> 100,> 100,> 100,,,,,,,,,,
CC(=NNC(=S)Nc1ccccc1)c1cccc(C(C)=NNC(=S)Nc2ccccc2)n1,> 100,> 50.2,> 100,> 31.4,> 44,> 100,> 100,6.86,> 100,> 50.2,,,,,,,,,,
Cc1ccc(S(=O)(=O)n2c3c(c4ccccc42)CCN2C[C@H]([C@H](C)Br)CC[C@@H]32)cc1,> 100,> 100,> 100,> 100,> 100,> 100,> 100,> 100,> 100,> 100,,,,,,,,,,
O=C(O)c1ccccc1CC(Cc1ccc2c(c1)CCC2)C(=O)O (stereo not given),> 100,> 100,> 100,> 100,> 100,> 100,> 100,> 100,> 100,> 100,,,,,,,,,,
O=C1NC2c3c(I)sc(I)c3C(O)C2O1 (stereo not given),> 100,> 100,> 100,> 100,> 100,> 100,> 100,> 100,> 100,> 100,,,,,,,,,,
NCCCN1c2ccccc2Sc2ccc(Cl)cc21,> 10,> 10,> 10,> 10,> 10,3.27,> 10,> 10,> 8.72,> 10,,,,,,,,,,
